Read-outs that look alike come from different tables or passages of the source.
Key:
[1] = tested on: avian influenza virus KBNP-0028 (KCTC 10866BP); format: cell-based, A/chicken/Korea/SNU0028/2000(H9N2)
[2] = tested on: CEF (chicken embryo fibroblasts)

SMILES: O=C(CCc1ccc(O)c(O)c1)C[C@H](O)CCc1ccc(O)c(O)c1 [12B-AJ-15A, (5R)-1,7-bis(3,4-dihydroxyphenyl)-5-hydroxyheptane-3-one]
- Antiviral activity (in words) [1]: had antiviral activity
- Number of wells wherein hemagglutination occurs (among 6 wells) ([1]; 12.5 μg/mL): 3
- Number of wells wherein hemagglutination occurs (among 6 wells) ([1]; 25 μg/mL): 3
- Number of wells wherein hemagglutination occurs (among 6 wells) ([1]; 50 μg/mL): 3
- Number of wells wherein hemagglutination occurs (among 6 wells) ([1]; 100 μg/mL): 3
- Cytotoxicity (in words) [2]: no cytotoxicity
- Cytotoxicity (MTT assay value) ([2]; 6.25 μg/mL): 0.457
- Cytotoxicity (MTT assay value) ([2]; 12.5 μg/mL): 0.369
- Cytotoxicity (MTT assay value) ([2]; 25 μg/mL): 0.320
- Cytotoxicity (MTT assay value) ([2]; 50 μg/mL): 0.369
- Cytotoxicity (MTT assay value) ([2]; 100 μg/mL): 0.423
- Cytotoxicity (MTT assay value) ([2]; 200 μg/mL): 0.538

Source: patent US20110124740A1, “NOVEL DIARYL HEPATONOID-BASED COMPOUNDS AND USE THEREOF” (priority 2008, published 2011)
